# Reference: US11702414B2, “Thiadiazole IRAK4 inhibitors” (Gilead Sciences, Inc., priority 2018, dated 2023)
# Like-named read-outs stand apart in the source and are kept apart here.
# What was measured:
# [1] = test system: TNFα; assay: IRAK4 Monocyte TNFα Cell Based Assay; design: species or system human; conditions: Homo sapiens, Monocyte, human monocytes
# Description: IRAK4 Monocyte TNFα Cell Based Assay Procedure:
# The cell suspension was then plated at a density of 5,000 cells/well onto black 384 well Greiner clear bottom plates. Plates were pre-spotted with test compounds and serially diluted in DMSO where 40 nL/well were delivered using the Echo 550 acoustic liquid dispenser (Labcyte®) for a final DMSO concentration of 0.1%. Plated cells were treated with compound for 1 hour at 37° C. Cells were then stimulated with 50 pg/ml of LPS (Sigma) excluding outside columns of plate used for unstimulated cell control wells. Cells were incubated for an additional 4 hours at 37° C. Cells were then spun out of the media and 5μl of sample were taken and analyzed for total TNFα content using the TR-FRET Human TNFα detection system (CisBio). This system utilizes two labeled antibodies (cryptate and XL665) that bind to two different epitopes of the TNFα molecule and produce FRET signal proportional to the concentration of TNFα in the sample. Detection antibodies are mixed 50:50 and 5 μL were dispensed into each well. Plates were covered with clear seals and incubated at room temp overnight. […] Percent of control was calculated as follows: % Control=100×(RatioSample−Ratio0% Stimulation)/(Ratio100% Stimulation−Ratio0% Stimulation) where unstimulated cells (0% stimulation) were the negative control and stimulated cells (100% stimulation) were used as the positive control.
# [2] = target: IRAK4 enzyme (Homo sapiens (Human), UniProt Q9NWZ3); assay: IRAK4 Biochemical Assay (TR-FRET, STK1 KinEASE)
# Description: IRAK4 enzyme (Carna Biosciences, Chuo-ku, Kobe, Japan) activity was measured by detecting phosphorylated peptide substrate formation using an antibody against the phosphorylated peptide substrate. This is a time-resolved fluorescence resonance energy transfer (TR-FRET) immunoassay, based on the STK1 KinEASE Assay (Cisbio, Bedford, Mass.). The assay was designed as a simple two-step, endpoint assay (a 5 μl enzyme reaction followed by 5 μl stop and detect Solution) performed in ProxiPlate-384 Plus plates (Perkin Elmer, Waltham, Mass.). […] Compounds diluted in DMSO were spotted into 384 well plates using a Labcyte® Echo 550 Liquid Handling System prior to addition of IRAK4 enzyme and peptide substrate. Reaction solutions were delivered using a Multi-Flo (Bio-Tek Instruments). The enzyme and peptide solution was incubated with compound for 15 minutes at room temp before the reaction was initiated by the addition of ATP. The standard 5 μl reaction mixture contained 500 μM ATP, 2 μM peptide (STK1 Peptide), 0.75 nM of IRAK4 in reaction buffer (50 mM HEPES, pH 7.0, 0.02% NaN3, 0.01% BSA, 0.1 mM Orthovanadate, 5 mM MgCl2, 0.025% NP-40, 1 mM DTT). After 120 min of incubation at room temperature, 5 μl of Stop and Detect Solution (1:100 Cryptate labeled anti-phosphorylated peptide antibody solution and 125 nM Tracer in a 50 mM HEPES pH 7.0 detection buffer containing sufficient EDTA) was added. The plate was then further incubated for 60 minutes at room temperature and read on Envision 2103 Multilabeled reader (PerkinElmer) with excitation/emission/FRET emission at 340 nm/615 nm/665 nm, respectively. Fluorescence intensities at 615 nm and 665 nm emission wavelengths were expressed as a ratio (665 nm/615 nm). Percentage of inhibition was calculated as below: % Inhibition=100×(RatioSample−Ratio0% Inhibition)/(Ratio100% Inhibition−Ratio0% Inhibition)
# The 0% inhibition value comes from control wells lacking inhibitor.
# [3] = second part of Table 2 (compounds 33-343), unit inferred, read-out: EC50MONO TNF HTRF
# Sequence of IRAK4 enzyme (Q9NWZ3 whole entry): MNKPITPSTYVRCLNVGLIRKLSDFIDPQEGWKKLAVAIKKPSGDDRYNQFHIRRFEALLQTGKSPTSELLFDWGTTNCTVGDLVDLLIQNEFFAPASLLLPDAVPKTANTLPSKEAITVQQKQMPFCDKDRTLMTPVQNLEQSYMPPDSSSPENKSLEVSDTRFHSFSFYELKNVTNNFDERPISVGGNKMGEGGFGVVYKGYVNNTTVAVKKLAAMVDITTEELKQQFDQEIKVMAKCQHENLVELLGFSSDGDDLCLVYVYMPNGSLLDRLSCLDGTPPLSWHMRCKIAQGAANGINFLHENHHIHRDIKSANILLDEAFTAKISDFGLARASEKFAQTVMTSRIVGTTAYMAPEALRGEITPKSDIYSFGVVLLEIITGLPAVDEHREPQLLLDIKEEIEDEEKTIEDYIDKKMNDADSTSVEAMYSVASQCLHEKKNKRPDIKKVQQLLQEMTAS
Structure (SMILES),"EC50 [1, 3]",IC50 [2],"EC50 ([1]; LPS-stimulated, compounds 1-32, read-out: EC50 TNF)","IC50 ([2]; compounds 1-32, read-out: IC50 HTRF)"
"CC(=O)NC12CCC(c3nnc(-c4cnc(-c5ccc6cc(C#N)cnn56)cc4NC4COC4)s3)(C1)C2 [Compound 334, N-(4-(5-(6-(3-cyanopyrrolo[1,2-b]pyridazin-7-yl)-4-(oxetan-3-ylamino)pyridin-3-yl)-1,3,4-thiadiazol-2-yl)bicyclo[2.1.1]hexan-1-yl)acetamide]",98.9 nM,2.41 nM,–,–
"CC(C)(O)C(=O)NC12CCC(c3nnc(-c4cnc(-c5ccc6cc(C#N)cnn56)cc4NC4COC4)s3)(C1)C2 [Compound 335, N-(4-(5-(6-(3-cyanopyrrolo[1,2-b]pyridazin-7-yl)-4-(oxetan-3-ylamino)pyridin-3-yl)-1,3,4-thiadiazol-2-yl)bicyclo[2.1.1]hexan-1-yl)-2-hydroxy-2-methylpropanamide]",48.9 nM,0.64 nM,–,–
"CC(C)Nc1cc(-c2ccc3cc(C#N)cnn23)ncc1-c1nnc(C2CCOCC2)s1 [Example 32, 7-(4-(isopropylamino)-5-(5-(tetrahydro-2H-pyran-4-yl)-1,3,4-thiadiazol-2-yl)pyridin-2-yl)pyrrolo[1,2-b]pyridazine-3-carbonitrile]",–,–,211 nM,< 1 nM
"CC(=O)NC[C@H]1CCCN1C(=O)c1nnc(-c2cnc(-c3ccc4cc(C#N)cnn34)cc2NC(C)C)s1 [Example 42, (R)-N-((1-(5-(6-(3-cyanopyrrolo[1,2-b]pyridazin-7-yl)-4-(isopropylamino)pyridin-3-yl)-1,3,4-thiadiazole-2-carbonyl)pyrrolidin-2-yl)methyl)acetamide]",35.7 nM,1.5 nM,–,–
"COC(=O)N[C@H]1CCN(C(=O)c2nnc(-c3cnc(-c4ccc5cc(C#N)cnn45)cc3NC(C)C)s2)C1 [Example 43, methyl (S)-(1-(5-(6-(3-cyanopyrrolo[1,2-b]pyridazin-7-yl)-4-(isopropylamino)pyridin-3-yl)-1,3,4-thiadiazole-2-carbonyl)pyrrolidin-3-yl)carbamate]",21.9 nM,0.72 nM,–,–
"CC(C)Nc1cc(-c2ccc3cc(C#N)cnn23)ncc1-c1nnc(C(=O)N2CC[C@@H](NC(=O)C3CC3)C2)s1 [Example 47, (R)-N-(1-(5-(6-(3-cyanopyrrolo[1,2-b]pyridazin-7-yl)-4-(isopropylamino)pyridin-3-yl)-1,3,4-thiadiazole-2-carbonyl)pyrrolidin-3-yl)cyclopropanecarboxamide]",5680 nM,1.42 nM,–,–
"CC(=O)N1CCC2(CC1)CN(c1nnc(-c3cnc(-c4ccc5cc(C#N)cnn45)cc3NC(C)C)s1)C2 [Example 67, 7-(5-(5-(7-acetyl-2,7-diazaspiro[3.5]nonan-2-yl)-1,3,4-thiadiazol-2-yl)-4-(isopropylamino)pyridin-2-yl)pyrrolo[1,2-b]pyridazine-3-carbonitrile]",10.4 nM,0.59 nM,–,–
"CC(=O)N[C@@H]1C[C@H]2C[C@@H]1CN2c1nnc(-c2cnc(-c3ccc4cc(C#N)cnn34)cc2NC(C)C)s1 [Example 73, N-((1R,4R,5R)-2-(5-(6-(3-cyanopyrrolo[1,2-b]pyridazin-7-yl)-4-(isopropylamino)pyridin-3-yl)-1,3,4-thiadiazol-2-yl)-2-azabicyclo[2.2.1]heptan-5-yl)acetamide]",64.1 nM,0.61 nM,–,–
"CC(=O)N1CCC2(CC1)CN(c1nnc(-c3cnc(-c4ccc5cc(C#N)cnn45)cc3NC3COC3)s1)C2 [Example 75, 7-(5-(5-(7-acetyl-2,7-diazaspiro[3.5]nonan-2-yl)-1,3,4-thiadiazol-2-yl)-4-(oxetan-3-ylamino)pyridin-2-yl)pyrrolo[1,2-b]pyridazine-3-carbonitrile]",3.2 nM,0.24 nM,–,–
"CC(=O)N1CCC2(CC1)CN(c1nnc(-c3cnc(-c4ccc5cc(C#N)cnn45)cc3NC3CCOCC3)s1)C2 [Example 76, 7-(5-(5-(7-acetyl-2,7-diazaspiro[3.5]nonan-2-yl)-1,3,4-thiadiazol-2-yl)-4-((tetrahydro-2H-pyran-4-yl)amino)pyridin-2-yl)pyrrolo[1,2-b]pyridazine-3-carbonitrile]",4.4 nM,0.85 nM,–,–
"CC(=O)NC1CCC2(CC1)CN(c1nnc(-c3cnc(-c4ccc5cc(C#N)cnn45)cc3N[C@H](C)C#N)s1)C2 [Example 77, (R)-N-(2-(5-(4-((1-cyanoethyl)amino)-6-(3-cyanopyrrolo[1,2-b]pyridazin-7-yl)pyridin-3-yl)-1,3,4-thiadiazol-2-yl)-2-azaspiro[3.5]nonan-7-yl)acetamide]",3.9 nM,1.06 nM,–,–
"CC(=O)NC1CCC2(CC1)CN(c1nnc(-c3cnc(-c4ccc5cc(C#N)cnn45)cc3NC3COC3)s1)C2 [Example 78, N-(2-(5-(6-(3-cyanopyrrolo[1,2-b]pyridazin-7-yl)-4-(oxetan-3-ylamino)pyridin-3-yl)-1,3,4-thiadiazol-2-yl)-2-azaspiro[3.5]nonan-7-yl)acetamide]",8.9 nM,0.85 nM,–,–
"CC(C)Nc1cc(-c2ccc3cc(C#N)cnn23)ncc1-c1nnc(C(C)(C)O)s1 [Example 80, 7-(5-(5-(2-hydroxypropan-2-yl)-1,3,4-thiadiazol-2-yl)-4-(isopropylamino)pyridin-2-yl)pyrrolo[1,2-b]pyridazine-3-carbonitrile]",114 nM,1.16 nM,–,–
"CC(C)Nc1cc(-c2ccc3cc(C#N)cnn23)ncc1-c1nnc(N2CC3(CCC(C)(O)CC3)C2)s1 [Example 82, 7-(5-(5-(7-hydroxy-7-methyl-2-azaspiro[3.5]nonan-2-yl)-1,3,4-thiadiazol-2-yl)-4-(isopropylamino)pyridin-2-yl)pyrrolo[1,2-b]pyridazine-3-carbonitrile]",23.1 nM,1.18 nM,–,–
"CC(=O)N[C@H]1CC[C@@H](c2nnc(-c3cnc(-c4ccc5cc(C#N)cnn45)cc3NC(C)C)s2)OC1 [Example 84, N-((3S,6S)-6-(5-(6-(3-cyanopyrrolo[1,2-b]pyridazin-7-yl)-4-(isopropylamino)pyridin-3-yl)-1,3,4-thiadiazol-2-yl)tetrahydro-2H-pyran-3-yl)acetamide]",8.6 nM,0.47 nM,–,–
"CC(=O)NC1CCC2(CC1)CN(c1nnc(-c3cnc(-c4ccc5cc(C#N)cnn45)cc3NC3(C)COC3)s1)C2 [Example 99, N-(2-(5-(6-(3-cyanopyrrolo[1,2-b]pyridazin-7-yl)-4-((3-methyloxetan-3-yl)amino)pyridin-3-yl)-1,3,4-thiadiazol-2-yl)-2-azaspiro[3.5]nonan-7-yl)acetamide]",5.8 nM,0.63 nM,–,–
"CC(C)Nc1cc(-c2ccc3cc(C#N)cnn23)ncc1-c1nnc(C2CCN(C3COC3)CC2)s1 [Example 138, 7-(4-(isopropylamino)-5-(5-(1-(oxetan-3-yl)piperidin-4-yl)-1,3,4-thiadiazol-2-yl)pyridin-2-yl)pyrrolo[1,2-b]pyridazine-3-carbonitrile]",15 nM,0.61 nM,–,–
"CC(C)Nc1cc(-c2ccc3cc(C#N)cnn23)ncc1-c1nnc(N2CC3CCC(C2)C3(O)C(F)(F)F)s1 (centres unmarked) [Example 159, 7-(5-(5-(8-hydroxy-8-(trifluoromethyl)-3-azabicyclo[3.2.1]octan-3-yl)-1,3,4-thiadiazol-2-yl)-4-(isopropylamino)pyridin-2-yl)pyrrolo[1,2-b]pyridazine-3-carbonitrile]",25.7 nM,6.38 nM,–,–
"CC(C)Nc1cc(-c2ccc3cc(C#N)cnn23)ncc1-c1nnc(N2CC3(CCNC3=O)C2)s1 [Example 164, 7-(4-(isopropylamino)-5-(5-(5-oxo-2,6-diazaspiro[3.4]octan-2-yl)-1,3,4-thiadiazol-2-yl)pyridin-2-yl)pyrrolo[1,2-b]pyridazine-3-carbonitrile]",17.5 nM,0.55 nM,–,–
